Activity calls are given as the source filed them. The calls are words filed in the database; no cut-off is given here.

In test [1] the target is T1, 5-hydroxytryptamine receptor 4 (Homo sapiens, UniProt Q13639). The test can be described thus: Displacement of [3H]GR-113808 from human 5HT4b receptor expressed in COS7 cell membrane by scintillation counting. (In a radioligand displacement assay an active substance lowers the binding of a labelled ligand.)
The target of test [2] is T1, 5-hydroxytryptamine receptor 4. The test can be described thus: Displacement of [3H]GR-113808 from human recombinant 5HT4b receptor expressed in HEK293 cells by scintillation counting. The format is cell-based.
The target is the same in test [3]. The test can be described thus: Displacement of [3H]GR-113808 from human 5HT4b receptor expressed in COS7 cell membrane at 1 uM by scintillation counting. The format is cell membranes. To be noted: COS-7.

T1 sequence (Q13639 whole entry): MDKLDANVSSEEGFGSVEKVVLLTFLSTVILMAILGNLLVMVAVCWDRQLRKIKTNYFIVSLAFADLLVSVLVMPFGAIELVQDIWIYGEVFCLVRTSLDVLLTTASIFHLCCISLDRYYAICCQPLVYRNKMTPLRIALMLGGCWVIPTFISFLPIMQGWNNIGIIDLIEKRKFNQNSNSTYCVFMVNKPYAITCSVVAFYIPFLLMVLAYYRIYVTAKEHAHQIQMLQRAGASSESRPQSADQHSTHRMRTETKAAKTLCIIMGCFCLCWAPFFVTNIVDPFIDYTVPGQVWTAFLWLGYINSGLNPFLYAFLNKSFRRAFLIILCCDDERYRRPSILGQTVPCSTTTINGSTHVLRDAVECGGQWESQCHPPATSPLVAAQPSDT

For `COc1ccc2[nH]cc(CCN)c2c1` [5-METHOXYTRYPTAMINE], the Ki (as a rule, a dissociation constant, usually derived from enzyme kinetics or from competition with a known ligand) in test [1] was 26.9 nM; in test [2], 245 nM.
`COc1ccc2[nH]cc(CNN3CCOCC3)c2c1`: the outcome in test [3] was Active. For the same compound, the Ki in test [1] is 145 nM.
